According to patent US20250345277A1, “Ionizable Liposome, Preparation Thereof, and Application Thereof in Gene Delivery” (MAXIRNA (ZHEJIANG) TECHNOLOGY CO. LTD., priority 2021, published 2025):

Columns and labels:
[1] = Entrapment efficiency of LNP preparation encapsulating EGFP mRNA; assay type: physicochemical; conditions: LNP ionizable lipid/DOPE/cholesterol/DSPE-PEG2000 35/16/46.5/2.5 mol% encapsulating EGFP mRNA
Protocol: The ionizable lipid compound of Example 1 was dissolved in ethanol with DOPE, cholesterol and DSPE-PEG2000 (all purchased from AVT (Shanghai) Pharmaceutical Technology Co., Ltd.) at a molar ratio of 35:16:46.5:2.5 to prepare ethanol lipid solution, and enhanced green fluorescent protein (EGFP) mRNAs (Shanghai Maximna Pharmaceutical Engineering Co., Ltd., JN-4201) were diluted in 20 mM citrate buffer (pH=6.1) to obtain mRNA aqueous solution. Ethanol lipid solution and mRNA aqueous solution were mixed at a volume ratio of 1:3 by using a microfluidic device (Micro&Nano (Shanghai) Instrument Technology Co., Ltd., model: INano™ML), LNPs were prepared with a weight ratio of approximately 10:1 between total lipids and mRNAs. The medium was replaced by ultrafiltration, ethanol was removed and volumed with DPBS. Finally, the lipid nanoparticles were filtered through a 0.2 μm sterile filter to obtain a LNP formulation encapsulating eGFP mRNA using ionizable lipid/DOPE/cholesterol/DSPE-PEG2000 (35/16/46.5/2.5 mol %), the concentration of mRNAs being 0.002 mg/mL-0.5 mg/mL. […]

DC2.4 cells = assay: In vitro transfection of DC2.4 cells with EGFP mRNA LNP preparation (flow cytometry); assay type: cell-based, mouse; conditions: DC2.4 cells; for Cell Viability / Positive Rate (EGFP): EGFP mRNA LNP, 200 ng mRNA per well, flow cytometry; for Fluorescence Intensity: EGFP mRNA expression level, normalized based on the sample with the highest fluorescence intensity
Source text: The description is based on peripheral blood mononuclear cells PBMC (Shanghai Oribiotech Co., Ltd.), human peripheral blood leukemia T cell Jurkat (ATCC), tumor infiltrating lymphocyte TIL (isolated from resected tumor tissue of a liver cancer patient, the preparation method refers to CN114763530A), mouse bone marrow-derived dendritic cells DC2.4 (Cell Bank of the Chinese Academy of Sciences), and Chinese hamster ovary cells CHO (ATCC) were used as verified cell lines for liposome transfection. PBMC, Jurkat, and TIL cells grew in suspension, while DC2.4 and CHO cells grew by adherent culture. All the operation steps of cell culture must strictly abide by the prescribed procedures, and sterile reagents is used to perform aseptic operations under a sterile workbench. The main steps are as follows: • 1) Cell recovery: the preserved cell cryopreservation solution was taken out of the −80° C. refrigerator, and was immediately put in a 37° C. water bath for rapid and continuous shaking, and was completely melted within one minute. Fresh medium was added to the 15 mL centrifuge tube in advance, and the cell solution was added to the centrifuge tube in a biological safety cabinet. A centrifuge tube of the same quality was taken and placed symmetrically in a centrifuge, centrifuged at a low speed at 1200 rpm for 5 min. After centrifugation, the supernatant was removed, and an appropriate amount of medium was slowly added along the tube wall. After the cells were evenly dispersed by blowing gently, the cell suspension was pipette and added to the culture bottle prepared in advance. The state and distribution of the cells in the early stage of recovery were observed under a microscope. The culture bottle was placed in a 5% CO2 incubator and incubated at 37° C., and the recovery time was recorded. • 2) Cell subculture: Under the microscope, if the cell density in the field of view reaches 80%-90%, the cells can be subcultured. Adherent cells need to be digested with trypsin. In order to avoid the residual serum in the culture medium to reduce the activity of trypsin, DPBS solution was added to wash once after removing the original culture medium. After remove the DPBS solution, trypsin was added to degrade the protein at the junction between cells. This separates the cells for further culture. The cells were gently shaked evenly and put into the incubator for digestion for 2 min. Immediately after the digestion was completed, an appropriate amount of medium was added to the original petri dish to terminate the digestion. Finally, the cells were carefully blowed off using a pipette and blowed until they are evenly dispersed, and then inoculated and subcultured at a certain ratio according to the experimental requirements. […]
• 1) DC2.4 cells recovery: the frozen DC2.4 cells were taken out from the −80° C. refrigerator, put in a 37° C. water bath to quickly thaw the cells, added to the preheated medium after thawing, centrifuged at 1200 rpm for 5 min, the supernatant was discarded, and an appropriate amount of DMEM medium with 10% FBS was added to resuspend the recovered DC2.4, and placed in a 5% CO2 incubator at 37° C. for activation and culture. • 2) According to the experimental arrangement, DC2.4 cells were plated on a 24-well plate one day in advance for cell transfection. Through cell counting, the number of cells and cell viability were recorded, the cell suspension were taken at 2×10^5 cells per well, then a certain volume of DMEM medium containing 10% FBS was added and mixed evenly, 1 mL of mixture was added to each well for subsequent transfection experiment. • 3) After 24 hours, the medium was gently removed 30 minutes in advance by a pipette, 1 mL DPBS was added to each well for washing and then removed, then 300 μL serum-free Opti-MEM medium was added to each well for subsequent transfection experiments.
Subsequent steps are the same as the transfection protocol for PBMC cells. […]

[2] = Size and polydispersity index PDI of lipid nanoparticles (Malvern Zetasizer Nano ZS); assay type: physicochemical; conditions: LNP ionizable lipid/DOPE/cholesterol/DSPE-PEG2000 35/16/46.5/2.5 mol% encapsulating EGFP mRNA; for Particle Size: in nm (unit assumed)
Protocol: The ionizable lipid compound of Example 1 was dissolved in ethanol with DOPE, cholesterol and DSPE-PEG2000 (all purchased from AVT (Shanghai) Pharmaceutical Technology Co., Ltd.) at a molar ratio of 35:16:46.5:2.5 to prepare ethanol lipid solution, and enhanced green fluorescent protein (EGFP) mRNAs (Shanghai Maximna Pharmaceutical Engineering Co., Ltd., JN-4201) were diluted in 20 mM citrate buffer (pH=6.1) to obtain mRNA aqueous solution. Ethanol lipid solution and mRNA aqueous solution were mixed at a volume ratio of 1:3 by using a microfluidic device (Micro&Nano (Shanghai) Instrument Technology Co., Ltd., model: INano™ML), LNPs were prepared with a weight ratio of approximately 10:1 between total lipids and mRNAs. The medium was replaced by ultrafiltration, ethanol was removed and volumed with DPBS. Finally, the lipid nanoparticles were filtered through a 0.2 μm sterile filter to obtain a LNP formulation encapsulating eGFP mRNA using ionizable lipid/DOPE/cholesterol/DSPE-PEG2000 (35/16/46.5/2.5 mol %), the concentration of mRNAs being 0.002 mg/mL-0.5 mg/mL.
Using Malvern Zetasizer Nano ZS (Malvern UK), the size and polydispersity index PDI of lipid nanoparticles were measured at […].

Compound	Entrapment Efficiency [1]	Cell Viability (DC2.4 cells)	Positive Rate (EGFP) (DC2.4 cells)	Fluorescence Intensity (DC2.4 cells)	PDI [2]	Particle Size [2]
CCCCCCCCCCC(O)CN(CCN(CCN1CCN(C)CC1)CCN(CC(O)CCCCCCCCCC)CC(O)CCCCCCCCCC)CC(O)CCCCCCCCCC (stereo not drawn) [E-C12]	95.02%	84.8%	56.4%	0.69	0.133	96.9
CCCCCCCCCCCCCCC(O)CN(CCN(CCN1CCN(C)CC1)CCN(CC(O)CCCCCCCCCCCCCC)CC(O)CCCCCCCCCCCCCC)CC(O)CCCCCCCCCCCCCC (stereo not drawn) [E-C16]	91.51%	94.4%	59.9%	0.71	0.107	76.9
CCCCCCCCCCC(O)CN(CCOCCN(CCOCCN(CC(O)CCCCCCCCCC)CC(O)CCCCCCCCCC)CCN1CCN(C)CC1)CC(O)CCCCCCCCCC (stereo not drawn) [F-C12]	92.31%	87.1%	63.9%	0.28	0.133	77.7
CCCCCCCCCCCCCCC(O)CN(CCOCCN(CCOCCN(CC(O)CCCCCCCCCCCCCC)CC(O)CCCCCCCCCCCCCC)CCN1CCN(C)CC1)CC(O)CCCCCCCCCCCCCC (stereo not drawn) [F-C16]	92.39%	96.8%	60.3%	0.17	0.099	91.9
CCCCCCCCCCCCCCCCC(O)CN(CCOCCN(CCOCCN(CC(O)CCCCCCCCCCCCCCCC)CC(O)CCCCCCCCCCCCCCCC)CCN1CCN(C)CC1)CC(O)CCCCCCCCCCCCCCCC (stereo not drawn) [F-C18]	80.61%	93.5%	61.5%	0.67	0.081	77.2
CCCCCCCCCCC(O)CN(CCOCCOCCN(CCOCCOCCN(CC(O)CCCCCCCCCC)CC(O)CCCCCCCCCC)CCN1CCN(C)CC1)CC(O)CCCCCCCCCC (stereo not drawn) [G-C12]	89.95%	92.9%	83.1%	0.29	0.172	89.3
CCCCCCCCCCCCCCC(O)CN(CCOCCOCCN(CCOCCOCCN(CC(O)CCCCCCCCCCCCCC)CC(O)CCCCCCCCCCCCCC)CCN1CCN(C)CC1)CC(O)CCCCCCCCCCCCCC (stereo not drawn) [G-C16]	85.40%	94.5%	79.6%	0.54	0.102	78.2
CCCCCCCCCCCCCCCCC(O)CN(CCOCCOCCN(CCOCCOCCN(CC(O)CCCCCCCCCCCCCCCC)CC(O)CCCCCCCCCCCCCCCC)CCN1CCN(C)CC1)CC(O)CCCCCCCCCCCCCCCC (stereo not drawn) [G-C18]	80.79%	95.2%	63.9%	0.63	0.195	99.8
CCCCCCCCCCC(O)CN(CCOCCOCCOCCN(CCOCCOCCOCCN(CC(O)CCCCCCCCCC)CC(O)CCCCCCCCCC)CCN1CCN(C)CC1)CC(O)CCCCCCCCCC (stereo not drawn) [H-C12]	94.13%	86.0%	74.3%	0.78	0.136	95.9
CCCCCCCCCCCCCCC(O)CN(CCOCCOCCOCCN(CCOCCOCCOCCN(CC(O)CCCCCCCCCCCCCC)CC(O)CCCCCCCCCCCCCC)CCN1CCN(C)CC1)CC(O)CCCCCCCCCCCCCC (stereo not drawn) [H-C16]	86.56%	>99.0%	59.0%	0.77	0.162	95.5
CCCCCCCCCCCCCCCCC(O)CN(CCOCCOCCOCCN(CCOCCOCCOCCN(CC(O)CCCCCCCCCCCCCCCC)CC(O)CCCCCCCCCCCCCCCC)CCN1CCN(C)CC1)CC(O)CCCCCCCCCCCCCCCC (stereo not drawn) [H-C18]	80.61%	97.4%	81.9%	0.38	0.143	73.8
CCCCCCCCCCC(O)CN(CCN(CCN1CCN(CCO)CC1)CCN(CC(O)CCCCCCCCCC)CC(O)CCCCCCCCCC)CC(O)CCCCCCCCCC (stereo not drawn) [I-C12]	88.38%	98.5%	63.9%	0.05	0.114	83.8
CCCCCCCCCCCCC(O)CN(CCN(CCN1CCN(CCO)CC1)CCN(CC(O)CCCCCCCCCCCC)CC(O)CCCCCCCCCCCC)CC(O)CCCCCCCCCCCC (stereo not drawn) [I-C14]	87.59%	97.0%	62.7%	0.05	0.180	120.3
